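Following 48 hours of exposure in 96-well plates, responses at five concentrations were used to interpolate endpoints linearly. Here, GI50 denotes the concentration required for 50% inhibition of growth. Definition used: TGI = concentration required for complete inhibition of growth.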
Experiments:
Experiment in all cases: NCI tumour cell line growth inhibition, 48 h
[1] = tested on: 786-0 renal
[2] = tested on: A498 renal
[3] = tested on: A549 NSCLC
[4] = tested on: BT-549 breast
[5] = tested on: COLO 205 colon
[6] = tested on: DU-145 prostate
[7] = tested on: HCC-2998 colon
[8] = tested on: HCT-116 colon
[9] = tested on: HCT-15 colon
[10] = tested on: HL-60(TB) leukemia
[11] = tested on: HOP-62 NSCLC
[12] = tested on: HOP-92 NSCLC
[13] = tested on: IGROV1 ovarian
[14] = tested on: K-562 leukemia
[15] = tested on: KM12 colon
[16] = tested on: LOX IMVI melanoma
[17] = tested on: M14 melanoma
[18] = tested on: MCF7 breast
[19] = tested on: MDA-MB-231 breast
[20] = tested on: MDA-MB-468 breast
[21] = tested on: MOLT-4 leukemia
[22] = tested on: NCI-H226 lung
[23] = tested on: NCI-H23 lung
[24] = tested on: NCI-H522 lung
[25] = tested on: NCI/ADR-RES ovarian
[26] = tested on: OVCAR-3 ovarian
[27] = tested on: OVCAR-5 ovarian
[28] = tested on: OVCAR-8 ovarian
[29] = tested on: PC-3 prostate
[30] = tested on: RXF 393 renal
[31] = tested on: SF-295 CNS
[32] = tested on: SF-539 CNS
[33] = tested on: SK-MEL-2 melanoma
[34] = tested on: SK-MEL-28 melanoma
[35] = tested on: SK-MEL-5 melanoma
[36] = tested on: SK-OV-3 ovarian
[37] = tested on: SN12C renal
[38] = tested on: SNB-19 CNS
[39] = tested on: SNB-75 CNS
[40] = tested on: SR leukemia
[41] = tested on: T-47D breast
[42] = tested on: TK-10 renal
[43] = tested on: U251 CNS
[44] = tested on: UACC-257 melanoma
[45] = tested on: UACC-62 melanoma

Structure (SMILES): Nc1nn2c(-c3cc4cc(Br)ccc4oc3=O)ccnc2c1N=Nc1ccc(Br)cc1
- GI50 [1]: 1.76 µM
- TGI [1]: 3.35 µM
- GI50 [2]: 1.81 µM
- TGI [2]: 3.92 µM
- GI50 [3]: 2.42 µM
- TGI [3]: 6.86 µM
- GI50 [4]: 2.94 µM
- TGI [4]: 8.72 µM
- GI50 [5]: 3.34 µM
- TGI [5]: > 100 µM
- GI50 [6]: 3.24 µM
- TGI [6]: > 100 µM
- GI50 [7]: 3.74 µM
- TGI [7]: > 100 µM
- GI50 [8]: 1.75 µM
- TGI [8]: 3.44 µM
- GI50 [9]: 2.58 µM
- TGI [9]: 8.23 µM
- GI50 [10]: > 100 µM
- TGI [10]: > 100 µM
- GI50 [11]: 1.99 µM
- TGI [11]: 4.16 µM
- GI50 [12]: 2 µM
- TGI [12]: 4.61 µM
- GI50 [13]: 2.72 µM
- TGI [13]: 8.76 µM
- GI50 [14]: 3.28 µM
- TGI [14]: > 100 µM
- GI50 [15]: 3.76 µM
- TGI [15]: > 100 µM
- GI50 [16]: 2.09 µM
- TGI [16]: 4.46 µM
- GI50 [17]: 3.06 µM
- TGI [17]: > 100 µM
- GI50 [18]: 2.89 µM
- TGI [18]: 10.1 µM
- GI50 [19]: 1.73 µM
- TGI [19]: 3.4 µM
- GI50 [20]: 2.04 µM
- TGI [20]: 5.47 µM
- GI50 [21]: > 100 µM
- TGI [21]: > 100 µM
- GI50 [22]: 1.96 µM
- TGI [22]: 4.58 µM
- GI50 [23]: 2.06 µM
- TGI [23]: 4.4 µM
- GI50 [24]: 2.2 µM
- TGI [24]: 6.55 µM
- GI50 [25]: 2.22 µM
- TGI [25]: 5.01 µM
- GI50 [26]: 2.33 µM
- TGI [26]: 6.37 µM
- GI50 [27]: 2.11 µM
- TGI [27]: 5.21 µM
- GI50 [28]: 2.81 µM
- TGI [28]: 9.79 µM
- GI50 [29]: 1.99 µM
- TGI [29]: 5.09 µM
- GI50 [30]: 2.25 µM
- TGI [30]: 5.37 µM
- GI50 [31]: 1.86 µM
- TGI [31]: 4.01 µM
- GI50 [32]: 1.73 µM
- TGI [32]: 3.13 µM
- GI50 [33]: 3.68 µM
- TGI [33]: 17.1 µM
- GI50 [34]: 2.18 µM
- TGI [34]: 4.93 µM
- GI50 [35]: 3.25 µM
- TGI [35]: > 100 µM
- GI50 [36]: 2.62 µM
- TGI [36]: 6.61 µM
- GI50 [37]: 1.94 µM
- TGI [37]: 3.87 µM
- GI50 [38]: 2.84 µM
- TGI [38]: 10.9 µM
- GI50 [39]: 1.81 µM
- TGI [39]: 4.62 µM
- GI50 [40]: 5.12 µM
- TGI [40]: > 100 µM
- GI50 [41]: 2.29 µM
- TGI [41]: 6.8 µM
- GI50 [42]: 2.34 µM
- TGI [42]: 5.08 µM
- GI50 [43]: 2.14 µM
- TGI [43]: 5.25 µM
- GI50 [44]: 3.06 µM
- TGI [44]: > 100 µM
- GI50 [45]: 3.24 µM
- TGI [45]: > 100 µM

Structure (SMILES): CC1=C2C(=C[C@@](C)(COS(C)(=O)=O)[C@@H]2O)C(=O)[C@](C)(O)C12CC2
- GI50 [20]: 0.201 µM
- TGI [20]: 0.519 µM

Structure (SMILES): CCCCCCCCCCCCCCCCC(=O)O.CCCCCCCCCCCCCCCCCC(=O)O.CCCCCCCCCCCCCCCCCC(=O)O.CCCCCCCCCCCCCCCCCC(=O)O.CCCCCCCCCCCCCCCCCC(=O)O.CO[CH-]OC12COC1CC(O)C1(C)C(O)C(OC(C)O)C3=C(C)C(OC(=O)C(O)C([NH-])c4ccccc4)CC(O)(C(OC(=O)c4ccccc4)C21)C3(C)C.[Cu+].[Zn].[Zn].[Zn].[Zn].[Zn] (centres undefined)
- GI50 [20]: 0.00338 µM
- TGI [20]: 0.0166 µM

Structure (SMILES): Clc1ccc(-c2cc(-c3ccccc3)nc(NCCNc3ccnc4cc(Cl)ccc34)n2)cc1
- GI50 [20]: 1.48 µM
- TGI [20]: 3.15 µM

Structure (SMILES): CN1CCN(Cc2ccc(NC(=O)c3cccc(C#Cc4cnc(N)c5ncccc45)c3F)cc2C(F)(F)F)CC1
- GI50 [20]: 6.2 µM
- TGI [20]: 16 µM

Structure (SMILES): CC1(C)[C@@H](OC(=O)CCC(=O)O)CC[C@]2(C)[C@H]3C(=O)C=C4[C@@H]5C[C@@](C)(C(=O)O)CC[C@]5(C)CC[C@@]4(C)[C@]3(C)CC[C@@H]12
- GI50 [20]: 78.6 µM
- TGI [20]: 189 µM

Structure (SMILES): COc1ccc(N2CCN(C3=C(Cl)C(=O)c4ncccc4C3=O)CC2)cc1
- GI50 [20]: 1.84 µM
- TGI [20]: 3.5 µM

Structure (SMILES): COC1=CC(c2ccc[nH]2)=N/C1=C\c1[nH]c(C)c(C(=O)CCCCC(=O)Oc2ccc3c(c2)CCC2C3CC[C@]3(C)[C@@H](O)CC[C@@H]23)c1C (some centres undefined)
- GI50 [20]: 4.92 µM
- TGI [20]: > 100 µM

Source: PubChem BioAssay (NCI)
